Measurements from patent publication US20160158200A1, “Combinations of Hepatitis C Virus Inhibitors” (priority 2013, published 2016).

Legend:
[1] = tested on: HCV genotype 1a L31V variant with leucine 31 changed to valine in the NS5A protein; experiment: microbe, parasite or virus in culture; format: cell-based; settings: genotype 1a L31V replicon; test compound titrated with compound N47 fixed at 200 nM versus singly
[2] = tested on: HCV genotype 1a Y93H variant with tyrosine 93 changed to histidine in the NS5A protein; experiment: microbe, parasite or virus in culture; format: cell-based; settings: genotype 1a Y93H replicon; test compound titrated with compound N47 fixed at 200 nM versus singly
Procedure: Combinations can be examined for synergistic activity using a variety of putative NS5A-targeting compounds and a variety of test compounds. […] The test compound can be chosen from compounds exemplified below, which were prepared by methods known in the art, or from others disclosed in the literature.
Similarly, BMS-790052 can be tested singly and in combination with a fixed amount of compound N47 in the HCV replicon cell based assay consisting of the genotype 1a Y93H variant with tyrosine 93 changed to histidine in the NS5A protein.

| Compound | Fold-Synergistic G-1a (L31V) [1] | Fold-Synergistic G-1a (Y93H) [2] |
| --- | --- | --- |
| O=C(Nc1ccc(/C=C/c2ccc(NC(=O)[C@@H]3CCCN3C(=O)Cc3cccnc3)nc2)cn1)[C@@H]1CCCN1C(=O)Cc1cccnc1 | <10 fold | <10 fold |
| O=C(Nc1ccc(-c2nnc(-c3ccc(NC(=O)[C@@H]4CCCN4C(=O)Cc4cccnc4)cc3)o2)cc1)[C@@H]1CCCN1C(=O)Cc1cccnc1 | <10 fold | <10 fold |
| Cc1nc(-c2ccc(NC(=O)[C@@H]3CCCN3C(=O)Cc3ccccc3)cc2)c(-c2ccc(NC(=O)[C@@H]3CCCN3C(=O)Cc3ccccc3)cc2)s1 | <10 fold | <10 fold |
| COC(=O)N[C@H](C(=O)N1CCC[C@H]1c1ncc(-c2ccc(-c3ncc(-c4cnc([C@@H]5CCCN5C(=O)[C@@H](NC(=O)OC)C(C)C)[nH]4)cn3)cc2)[nH]1)C(C)C | >100 fold | >100 fold |
| COC(=O)N[C@H](C(=O)N1CCC[C@H]1C(=O)Nc1cc(-c2ncc(-c3ccc4nc([C@@H]5CCCN5C(=O)[C@@H](c5ccccc5)N(C)C)[nH]c4c3)o2)ccc1C)C(C)C | <10 fold | <10 fold |
| COC(=O)N[C@H](C(=O)N1CCC[C@H]1c1nc(-c2ccc(-c3ccc4nc([C@@H]5CCCN5C(=O)[C@@H](NC(=O)OC)C(C)C)[nH]c4c3)cc2)c[nH]1)C(C)C | >10 fold | >100 fold |
| COC(=O)N[C@H](C(=O)N1CCC[C@H]1c1nc(-c2cccc(-c3ccc4nc([C@@H]5CCCN5C(=O)[C@@H](NC(=O)OC)C(C)C)[nH]c4c3)c2)c[nH]1)C(C)C | <10 fold | <10 fold |
| COC(=O)N[C@H](C(=O)N1CCC[C@H]1c1nc2ccc(-c3cnc(-c4cccc5nc([C@@H]6CCCN6C(=O)[C@@H](NC(=O)OC)C(C)C)[nH]c45)o3)cc2[nH]1)C(C)C | <10 fold | >100 fold |
| COC(=O)N[C@H](C(=O)N1CCC[C@H]1c1ncc(-c2ccc(-c3ccc4c(c3)CCCc3[nH]c([C@@H]5CCCN5C(=O)[C@@H](NC(=O)OC)C(C)C)nc3-4)cc2)[nH]1)C(C)C | >100 fold | >100 fold |
| COC(=O)N[C@H](C(=O)N1CCC[C@H]1c1nc2cc(C#Cc3ccc4[nH]c([C@@H]5CCCN5C(=O)[C@@H](NC(=O)OC)C(C)C)nc4c3)ccc2[nH]1)C(C)C | <10 fold | >10 fold |
| CCN(CC)[C@@H](C(=O)N1CCC[C@H]1c1nc2c([nH]1)CCCc1cc(-c3ccc4nc([C@@H]5CCCN5C(=O)[C@@H](c5ccccc5)N(CC)CC)[nH]c4c3)ccc1-2)c1ccccc1 | <10 fold | <10 fold |
| COC(=O)N[C@H](C(=O)N1CCC[C@H]1c1nc(C2=CCC(C3CC=C(c4c[nH]c([C@@H]5CCCN5C(=O)[C@@H](NC(=O)OC)C(C)C)n4)CC3)CC2)c[nH]1)C(C)C (stereo partly shown) | >100 fold | >100 fold |
| COC(=O)N[C@H](C(=O)N1CCC[C@H]1c1ncc(-c2ccc(-c3ccc4c(c3)CCc3nc([C@@H]5CCCN5C(=O)[C@@H](NC(=O)OC)C(C)C)[nH]c3-4)cc2)[nH]1)C(C)C | >100 fold | >100 fold |
| COC(=O)N[C@H](C(=O)N1CC(F)(F)C[C@H]1c1nc(-c2ccc(-c3ccc(-c4c[nH]c([C@@H]5CC(F)(F)CN5C(=O)[C@@H](NC(=O)OC)C(C)C)n4)cc3)cc2)c[nH]1)C(C)C | >100 fold | >100 fold |
| COC(=O)N[C@H](C(=O)N1CCC[C@H]1c1nc(-c2ccc(-c3ccc4c(c3)CCCCc3[nH]c([C@@H]5CCCN5C(=O)[C@@H](NC(=O)OC)C(C)C)nc3-4)cc2)c[nH]1)C(C)C | >100 fold | >100 fold |
| COC(=O)N[C@H](C(=O)N1[C@@H]2C[C@@H]2C[C@H]1c1ncc(-c2ccc(-c3ccc(-c4cnc([C@@H]5C[C@H]6C[C@H]6N5C(=O)[C@@H](NC(=O)OC)C(C)C)[nH]4)cc3)cc2)[nH]1)C(C)C | >100 fold | >100 fold |

| Compound | Fold-Synergistic G-1a (L31V) [1] | Fold-Synergistic G-1a (Y93H) [2] |
| --- | --- | --- |
| COC(=O)N[C@@H](C)C(=O)N1[C@@H]2CC[C@@H](C2)[C@H]1c1nc(-c2ccc(-c3ccc(-c4cnc([C@@H]5[C@H]6CC[C@H](C6)N5C(=O)[C@H](C)NC(=O)OC)[nH]4)cc3)cc2)c[nH]1 | >10 fold | <10 fold |
| COC(=O)N[C@H](C(=O)N1[C@@H](C)CC[C@H]1c1ncc(-c2ccc(-c3ccc(-c4cnc([C@@H]5CC[C@H](C)N5C(=O)[C@@H](NC(=O)OC)C(C)C)[nH]4)cc3)cc2)[nH]1)C(C)C | >100 fold | >100 fold |
| COC(=O)N[C@H](C(=O)N1CCn2c(-c3ccc(-c4ccc(-c5cnc6n5CCN(C(=O)[C@@H](NC(=O)OC)C(C)C)C6)cc4)cc3)cnc2C1)C(C)C | <10 fold | <10 fold |
| COC(=O)N[C@H](C(=O)N1CCC[C@H]1c1nc2ccc3cc(-c4ccc5c(ccc6nc([C@@H]7CCCN7C(=O)[C@@H](NC(=O)OC)C(C)C)[nH]c65)c4)ccc3c2[nH]1)C(C)C | >100 fold | >100 fold |
| COC(=O)N[C@H](C(=O)N1[C@@H]2CC[C@@H]2C[C@H]1c1nc(-c2ccc(-c3ccc(-c4cnc([C@@H]5C[C@H]6CC[C@H]6N5C(=O)[C@@H](NC(=O)OC)C(C)C)[nH]4)cc3)cc2)c[nH]1)C(C)C | >100 fold | >100 fold |
| COC(=O)N[C@H](C(=O)N1[C@H](C)CC[C@H]1c1ncc(-c2ccc(-c3ccc(-c4cnc([C@@H]5CC[C@@H](C)N5C(=O)[C@@H](NC(=O)OC)C(C)C)[nH]4)cc3)cc2)[nH]1)C(C)C | >100 fold | >100 fold |
| COC(=O)N[C@H](C(=O)N1[C@@H]2C[C@@H]2C[C@H]1c1nc2ccc(-c3ccc(-c4ccc5nc([C@@H]6C[C@H]7C[C@H]7N6C(=O)[C@@H](NC(=O)OC)C(C)C)[nH]c5c4)cc3)cc2[nH]1)C(C)C | >10 fold | >100 fold |
| CC[C@H](NC(=O)OC)C(=O)N1[C@@H]2C[C@@H]2C[C@H]1c1ncc(-c2ccc(C34CCC(c5cnc([C@@H]6C[C@H]7C[C@H]7N6C(=O)[C@H](CC)NC(=O)OC)[nH]5)(CC3)CC4)cc2)[nH]1 | >100 fold | >100 fold |
| CN(C)[C@@H](C(=O)N1CCC[C@H]1c1ncc(-c2ccc(-c3ccc(-c4cnc([C@@H]5CCCN5C(=O)[C@@H](c5ccccc5)N(C)C)[nH]4)s3)s2)[nH]1)c1ccccc1 | <10 fold | <10 fold |
| COC(=O)N[C@H](C(=O)N1[C@@H]2C[C@@H]2C[C@H]1c1nc2cc(Oc3cccc(-c4ccc5[nH]c([C@@H]6C[C@H]7C[C@H]7N6C(=O)[C@@H](NC(=O)OC)C(C)C)nc5c4)c3)ccc2[nH]1)C(C)C | >10 fold | >10 fold |
| COC(=O)N[C@@H](C(=O)N1CCC[C@H]1c1ncc(-c2nc3cc4sc(-c5cnc([C@@H]6CCCN6C(=O)[C@H](NC(=O)OC)c6ccccc6)[nH]5)nc4cc3s2)[nH]1)c1ccccc1 | <10 fold | >100 fold |
| COC(=O)N[C@H]1CCC[C@H]2CC[C@@H](c3nc(-c4ccc(-c5ccc(-c6c[nH]c([C@@H]7CC[C@@H]8CCC[C@H](NC(=O)OC)C(=O)N87)n6)cc5)cc4)c[nH]3)N2C1=O | <10 fold | <10 fold |
| COC(=O)N[C@H](C(=O)N1[C@@H]2C[C@@H]2C[C@H]1c1nc2cc(-c3ccc(Oc4cccc5[nH]c([C@@H]6C[C@H]7C[C@H]7N6C(=O)[C@@H](NC(=O)OC)C(C)C)nc45)cc3)ccc2[nH]1)C(C)C | >10 fold | >100 fold |
| COC(=O)N[C@H](C(=O)N1CCC[C@H]1c1nc2ccc(C#CC#Cc3ccc4nc([C@@H]5CCCN5C(=O)[C@@H](NC(=O)OC)C(C)C)[nH]c4c3)cc2[nH]1)C(C)C | >100 fold | >10 fold |
| COC(=O)N[C@H](C(=O)N1CCC[C@H]1c1ncc(-c2cnc(-c3ncc(-c4cnc([C@@H]5CCCN5C(=O)[C@@H](NC(=O)OC)C(C)C)[nH]4)s3)s2)[nH]1)C(C)C | >10 fold | >100 fold |
| COC(=O)N[C@H](C(=O)N1C[C@H](C)CC1c1nc(-c2ccc(-c3ccc(-c4cnc([C@@H]5C[C@@H](C)CN5C(=O)[C@@H](NC(=O)OC)C(C)C)[nH]4)cc3)cc2)c[nH]1)C(C)C (stereo partly shown) | >100 fold | >100 fold |
